What was measured:
[1] = (§1) Human liver microsomal stability of compound in microsomal protein, PBS buffer pH 7.4, NADPH, glucose-6-phosphate and glucose-6-phosphate dehydrogenase media. Aliquotes were taken at 5 time points and after stopping the reaction, supernatants were analyzed using HPLC coupled with a tandem mass spectrometer. The elimination constant, half-life, and intrinsic clearance are determined as results using linear regression analysis.; assay type: ADME, microsomes, Microsome; settings: for half-life / microsomal CLint: liver microsomes; for Remaining / Remaining (without cofactor): microsomes
[2] = as §1, with “Mouse” for “Human”; assay type: ADME, microsomes, Microsome; settings: for half-life / microsomal CLint: liver microsomes; for Remaining / Remaining (without cofactor): microsomes
For Remaining (without cofactor) in this document: time not given here.
For Remaining in this document: time not given here.

half-life [1]	microsomal CLint [1]	Remaining [1]	Remaining (without cofactor) [1]	half-life [2]	microsomal CLint [2]	Remaining [2]	Remaining (without cofactor) [2]	Compound
1.42 h	19.7 µL/min/mg	68.563%	103.817%	2.38 h	11.7 µL/min/mg	84.686%	107.462%	COCCNC(=O)[C@H](Nc1ccc2c(c1)CNC2)c1cc(Cl)cc(C2CC2)c1
> 2.89 h	< 10 µL/min/mg	90.394%	113.364%	> 2.89 h	< 10 µL/min/mg	93.147%	101.58%	N#CCCNC(=O)[C@H](Nc1ccc2c(c1)CNC2)c1cc(Cl)cc(C2CC2)c1
> 2.89 h	< 10 µL/min/mg	90.859%	112.656%	> 2.89 h	< 10 µL/min/mg	87.863%	93.167%	CNC(=O)[C@H](Nc1ccc2c(c1)CNC2)c1cc(Cl)cc(C2CC2)c1
1.63 h	17.1 µL/min/mg	74.869%	95.997%	2.63 h	10.6 µL/min/mg	80.041%	110.954%	CN(c1ccc2c(c1)CNC2)[C@H](C(=O)NCC(F)F)c1cc(Cl)cc(C2CC2)c1
> 2.89 h	< 10 µL/min/mg	100.118%	106.151%	> 2.89 h	< 10 µL/min/mg	93.302%	93.905%	O=C(NCC(F)F)[C@H](Nc1ccc2c(c1)CNC2)c1cc(Br)cc2nc[nH]c12
1.75 h	15.9 µL/min/mg	77.399%	95.756%	1.6 h	17.4 µL/min/mg	76.547%	97.886%	O=C(NCCCF)[C@H](Nc1ccc2c(c1)CNC2)c1cc(Cl)cc(C2CC2)c1
> 2.89 h	< 10 µL/min/mg	94.228%	112.017%	> 2.89 h	< 10 µL/min/mg	97.4%	108.672%	COCc1cc(Cl)cc([C@H](Nc2ccc3c(c2)CNC3)C(=O)NCC(F)F)c1
1.08 h	25.9 µL/min/mg	67.209%	94.723%	1.21 h	22.9 µL/min/mg	69.524%	97.036%	O=C(NCC(F)F)[C@H](Nc1cc2c(cc1Br)CNC2)c1cc(Cl)cc(C2CC2)c1
1.72 h	16.2 µL/min/mg	75.607%	97.272%	1.43 h	19.5 µL/min/mg	73.231%	102.386%	CCCCNC(=O)[C@H](Nc1ccc2c(c1)CNC2)c1cc(Cl)cc(C2CC2)c1
> 2.89 h	< 10 µL/min/mg	91.954%	107.924%	2.16 h	12.9 µL/min/mg	81.928%	96.342%	COc1cc(Cl)cc([C@H](Nc2ccc3c(c2)CNC3)C(=O)NCC(F)F)c1
> 2.89 h	< 10 µL/min/mg	91.952%	110.51%	> 2.89 h	< 10 µL/min/mg	87.443%	105.088%	O=C(NCC(F)F)[C@H](Nc1cnc2c(c1)CNC2)c1cc(Cl)cc(C2CC2)c1
> 2.89 h	< 10 µL/min/mg	89.032%	105.687%	2.49 h	11.2 µL/min/mg	85.983%	88.687%	Cc1cc([C@H](Nc2ccc3c(c2)CNC3)C(=O)NCC(F)F)cc(C(F)(F)F)c1
1.99 h	14 µL/min/mg	80.194%	105.323%	0.882 h	31.6 µL/min/mg	60.623%	103.851%	O=C(NCC(F)F)[C@H](Nc1ccc2c(c1)CNC2)c1cc(Cl)cc2c1CCC2
> 2.89 h	< 10 µL/min/mg	100.816%	103.719%	> 2.89 h	< 10 µL/min/mg	93.727%	105.352%	O=C(NCC(F)F)[C@H](Nc1ccc2c(c1)CNC2)c1cc(Cl)cc2ccoc12
> 2.89 h	< 10 µL/min/mg	93.073%	104.062%	> 2.89 h	< 10 µL/min/mg	90.033%	104.77%	COc1cc(C#N)cc([C@H](Nc2ccc3c(c2)CNC3)C(=O)NCC(F)F)c1
> 2.89 h	< 10 µL/min/mg	93.064%	105.277%	2.08 h	13.4 µL/min/mg	78.077%	96.092%	O=C(Nc1ccc2c(c1)CNC2)c1cc(Cl)cc2c1cnn2C1CCC1

Second part, the molecule before the results:

Compound	half-life [1]	microsomal CLint [1]	Remaining [1]	Remaining (without cofactor) [1]	half-life [2]	microsomal CLint [2]	Remaining [2]	Remaining (without cofactor) [2]
O=C(Nc1ccc2c(c1)CNC2)c1cccc2[nH]c(C(F)(F)F)cc12	1.97 h	14.1 µL/min/mg	78.018%	74.757%	2.19 h	12.7 µL/min/mg	75.758%	108.523%
N#Cc1cccc(-c2nc3c(C(=O)Nc4ccc5c(c4)CNC5)cc(F)cc3[nH]2)c1	> 2.89 h	< 10 µL/min/mg	89.52%	98.721%	1.27 h	22 µL/min/mg	68.981%	99.493%
O=C(Nc1cc2c(c(-c3c[nH]c(=O)c(F)c3)c1)CNC2)c1cc(F)cc2[nH]ncc12	> 2.89 h	< 10 µL/min/mg	95.49%	97.444%	0.115 h	243 µL/min/mg	2.163%	108.846%
O=C(Nc1ccc2c(c1)CNC2)c1ccc2[nH]cc(C3CCNCC3)c2c1	> 2.89 h	< 10 µL/min/mg	86.755%	110.939%	> 2.89 h	< 10 µL/min/mg	86.057%	94.216%
CO[C@H]1C[C@H](n2ncc3c(C(=O)Nc4ccc5c(c4)CNC5)cc(Cl)cc32)C1	> 2.89 h	< 10 µL/min/mg	104.617%	107.995%	> 2.89 h	< 10 µL/min/mg	91.321%	100.159%
Cn1cc2c(C(=O)Nc3ccc4c(c3)CNC4)cc(F)cc2n1	> 2.89 h	< 10 µL/min/mg	100.772%	105.44%	1.53 h	18.2 µL/min/mg	76.341%	103.175%
COc1ccc(-c2nc3c(C(=O)Nc4ccc5c(c4)CNC5)cc(F)cc3[nH]2)nn1	> 2.89 h	< 10 µL/min/mg	87.708%	99.462%	1.64 h	16.9 µL/min/mg	73.587%	92.469%
O=C(Nc1cc(Br)c2c(c1)CNC2)c1cc(F)cc2[nH]ncc12	2.05 h	13.6 µL/min/mg	77.163%	100.794%	0.192 h	145 µL/min/mg	10.289%	104.117%
O=C1Cc2c(cc(F)cc2C(=O)Nc2ccc3c(c2)CNC3)N1	> 2.89 h	< 10 µL/min/mg	99%	112.283%	> 2.89 h	< 10 µL/min/mg	87.64%	93.435%
Cn1ncc2c(C(=O)Nc3ccc4c(c3)CNC4)cc(Cl)cc21	> 2.89 h	< 10 µL/min/mg	91.353%	101.456%	1.09 h	25.5 µL/min/mg	63.701%	92.242%
O=C(Nc1ccc2c(c1)CNC2)c1cc(F)cc2[nH]c(-c3ccc(F)cc3)nc12	> 2.89 h	< 10 µL/min/mg	90%	94.287%	0.756 h	36.8 µL/min/mg	54.776%	103.385%
COc1cc(-c2cc(NC(=O)c3cc(F)cc4[nH]ncc34)cc3c2CNC3)ccn1	> 2.89 h	< 10 µL/min/mg	90.289%	101.002%	0.107 h	260 µL/min/mg	1.475%	106.757%
CC(C)n1cc2c(C(=O)Nc3ccc4c(c3)CNC4)cc(Cl)cc2n1	> 2.89 h	< 10 µL/min/mg	96.618%	96.957%	> 2.89 h	< 10 µL/min/mg	89.02%	93.513%
O=C(Nc1cc2c(c(C3=CCS(=O)(=O)CC3)c1)CNC2)c1cc(F)cc2[nH]ncc12	> 2.89 h	< 10 µL/min/mg	98.934%	96.094%	0.287 h	96.9 µL/min/mg	20.909%	113.863%

Reference: ChEMBL document CHEMBL5665440, “ASAP - In vitro liver microsomal stability” (2024)
